Columns and labels:
[1] = system: HCT116 colorectal carcinoma cells; test: MTT cytotoxicity assay, HCT116; type: cell-based, human; settings: 48 h exposure, read-out: IC50 ± SD, HCT116
Protocol: (§1) To characterize the antitumor potential of the resulting Pd(II) pincer complexes, their cytotoxicities against a panel of human solid and hematopoietic cancer cell lines, including colorectal carcinoma (HCT116), breast cancer (MCF7), prostate adenocarcinoma (PC3), glioblastoma (U251), ovarian adenocarcinoma (Scov3), chronic myelogenous leukemia (K562) and its resistant subclone (K562/iS9), multiple plasmacytoma (AMO1), and acute lymphoblastic leukemia (H9) cell lineages, were evaluated using the conventional MTT assay. […] For comparison, the inhibitory effects of the compounds explored on noncancerous human embryonic kidney cells HEK293 as well as transformed breast cells HBL100 and their doxorubicin-resistant analogs HBL100/Dox were also investigated under the same conditions.
(§2) The cytotoxic activity of the compounds explored was investigated on human colorectal carcinoma (HCT116), breast cancer (MCF7), prostate adenocarcinoma (PC3), glioblastoma (U251), ovarian adenocarcinoma (Scov3), chronic myelogenous leukemia (K562 and K562/iS9), multiple plasmacytoma (AMO1), and acute lymphoblastic leukemia (H9) cell lines, as well as human embryonic kidney (HEK293) and mammary epithelial (HBL100 and HBL100/Dox) cells used as representatives of pseudonormal cells. All cell lines were obtained from American Type Culture Collection (ATCC). RPMI-1640 and DMEM media were obtained from Gibco. Fetal bovine serum (FBS) was purchased from HyClone. Cells were cultured in RPMI-1640 or DMEM media supplemented with 10% FBS and 50 μg/mL gentamicin in a humidified incubator with 5% CO2 atmosphere. The cell growth inhibitory effects of the compounds were evaluated using the conventional MTT assay (ICN Biomedicals, Eschwege, Germany). Cells were seeded in triplicate at a cell density of 5 × 10^3/well in 96-well plates in 100 µL complete medium and preincubated for 24 h. The tested compounds were initially dissolved in DMSO. Then, the compounds at various concentrations were added to the media. The well plates were incubated for 48 h followed by addition of MTT solution (Sigma, Darmstadt, Germany) (20 μL, 5 mg/mL). The cells were incubated at 37 °C for further 3 h; then the culture medium was removed, and formazan crystals were dissolved in DMSO (70 μL). The absorbance of the resulting solutions was measured on a multi-well plate reader (Multiskan FC, Thermo scientific) at 530 nm to determine the percentage of surviving cells. The reported values of IC50 are the averages of three independent experiments (Table 2 and Table 3). Cisplatin (in the initial form of an infusion concentrate in natural saline solution) from a commercial source was used as the reference.

MCF7 breast cancer cells = test: MTT cytotoxicity assay, MCF7; type: cell-based, human; settings: MCF7, MTT, 48 h exposure; read-out: IC50 ± SD, MCF7
Protocol: as §1, §2

[2] = system: PC3 prostate adenocarcinoma cells; test: MTT cytotoxicity assay, PC3; type: cell-based, human; settings: 48 h exposure, read-out: IC50 ± SD, PC3
Protocol: as §1, §2

U251 glioblastoma cells = test: MTT cytotoxicity assay, U251; type: cell-based, human; settings: 48 h exposure, read-out: IC50 ± SD, U251
Protocol: as §1, §2

[3] = system: Scov3 ovarian adenocarcinoma cells; test: MTT cytotoxicity assay, Scov3; type: cell-based, human; settings: Scov3, compound concentration 80.0 μM, 48 h
Protocol: as §1, §2

[4] = system: HEK293 embryonic kidney cells; test: MTT cytotoxicity assay, HEK293; type: cell-based, human; settings: HEK293 noncancerous cells, 48 h exposure, read-out: IC50 ± SD, HEK293
Protocol: as §1, §2

[5] = system: HBL100 mammary epithelial cells; test: MTT cytotoxicity assay, HBL100; type: cell-based, human; settings: 48 h exposure, read-out: IC50 ± SD, HBL100
Protocol: as §1, §2

[6] = system: HBL100/Dox doxorubicin-resistant mammary epithelial cells; test: MTT cytotoxicity assay, HBL100/Dox; type: cell-based, human; settings: MTT, 48 h exposure, read-out: IC50 ± SD, HBL100/Dox
Protocol: as §1, §2

[7] = system: K562 chronic myelogenous leukemia cells; test: MTT cytotoxicity assay, K562; type: cell-based, human; settings: 48 h exposure, read-out: IC50 ± SD, K562
Protocol: as §1, §2

[8] = system: K562/iS9 resistant chronic myelogenous leukemia cells; test: MTT cytotoxicity assay, K562/iS9; type: cell-based, human; settings: 48 h exposure, read-out: IC50 ± SD, K562/iS9
Protocol: as §1, §2

[9] = system: AMO1 multiple plasmacytoma cells; test: MTT cytotoxicity assay, AMO1; type: cell-based, human; settings: AMO1, MTT, 48 h exposure; read-out: IC50 ± SD, AMO1
Protocol: as §1, §2

[10] = system: H9 acute lymphoblastic leukemia cells; test: MTT cytotoxicity assay, H9; type: cell-based, human; settings: 48 h exposure, read-out: IC50 ± SD, H9
Protocol: as §1
as §2, with “Then, the compounds at various concentrations were added to the media. The well plates were incubated for 48 h followed by addition of MTT solution (Sigma, Darmstadt, Germany) (20 μL, 5 mg/mL). The cells were incubated at 37 °C for further 3 h; then the culture medium was removed, and formazan crystals were dissolved in DMSO (70 μL).” left out, “The reported values of IC50 are the averages of three independent experiments (Table 2 and Table 3). Cisplatin (in the initial form of an infusion concentrate in natural saline solution) from a commercial source was used as the reference.” left out

[11] = UV-vis stability study in DMSO, DMSO–water and DMSO–PBS; type: physicochemical; settings: neat DMSO, DMSO–water and DMSO–PBS solutions, over 48 h
Protocol: The observed dependences correlate well with our previous findings on the lability of the phosphoryl sites in palladocycles 2a,b, 3a,b and can be rationalized in terms of their coordination behavior. […] However, the presence of an additional competitive chloride anion makes complex 2b potentially more susceptible to decoordination of the phosphoryl arm. […] At least the N,N-bidentately bound core remained intact in the mentioned media over a period of 48 h.
The NMR spectra were recorded on Bruker Avance 400 and Avance 500 spectrometers, and the chemical shifts (δ) were referenced internally by the residual (^1H) or deuterated (^13C) solvent signals relative to tetramethylsilane or externally to H3PO4 (^31P) or liquid ammonia (^15N). The ^15N chemical shifts were extracted from the ^1H–^15N HMBC spectra. In all cases, the ^13C{^1H} NMR spectra were registered using the JMODECHO mode; the signals for the C nuclei bearing odd and even numbers of protons had opposite polarities. The NMR peak assignments for ligand 1a and complexes 2a, 3a,b were based on the analysis of ^1H–^1H COSY, ^1H–^13C HSQC, and ^1H–^13C HMBC spectra. The results obtained were used to assign the NMR spectra of the other compounds obtained in this study. For the NMR spectra of the representative compounds, see Figures S1–S9 (1a), S11–S22 (2a), and S24–S35 (3b) in the Supporting Information. […]

For O=C(c1ccccn1)[N](CP(=O)(c1ccccc1)c1ccccc1)[Pd][Cl] [complex 3a, [κ^3-O,N,N-(L)Pd(II)Cl]], the IC50 [1] was 36 ± 2 µM, the IC50 (MCF7 breast cancer cells) was 45 ± 5 µM and the IC50 [2] was 26 ± 6 µM. For the same compound, the IC50 (U251 glioblastoma cells) was over 80 µM, the “percentage of live cells” value [3] was 30% ^5 and the IC50 [4] was 34 ± 3 µM. It also gave an IC50 [5] of over 80 µM, an IC50 [6] of over 80 µM and an IC50 [7] of 36 ± 4 µM. For the same compound, the IC50 [8] was 40 ± 4.5 µM, the IC50 [9] was 32 ± 2 µM and the IC50 [10] was 23 ± 1 µM. For the same compound, the “stability by UV-vis spectroscopy” value [11] was “high stability”.

Source: article PMC10146186, “Modulation of the Cytotoxic Properties of Pd(II) Complexes Based on Functionalized Carboxamides Featuring Labile Phosphoryl Coordination Sites” (Pharmaceutics, 2023)
